According to US20240270762A1, “PENICILLIN-BINDING PROTEIN INHIBITORS” (priority 2021, published 2024):
Values after ≈ are worked out from the molar mass of the structure shown.

How the values were obtained:
[1] = tested on: A. baumannii ATCC 19606; test: microbe, parasite or virus in culture; type: cell-based; conditions: Acinetobacter baumannii, ATCC19606, read-out: MIC, A. baumannii ATCC 19606
[2] = tested on: P. aeruginosa CDC-0090; test: microbe, parasite or virus in culture; type: cell-based; conditions: Pseudomonas aeruginosa, CDC0090, read-out: Minimum inhibitory concentration, P. aeruginosa CDC-0090
[3] = tested on: P. aeruginosa (ΔmexAB-oprM); test: Broth microdilution MIC in iron-depleted CAMHB (IDM); type: cell-based; conditions: Pseudomonas aeruginosa; iron-depleted CAMHB (IDM); […]; read-out: Minimum inhibitory concentration, P. aeruginosa ΔmexAB-oprM
[4] = tested on: N. gonorrhoeae WHO M; test: Liquid broth MIC in Fastidious broth; conditions: Neisseria gonorrhoeae, read-out: Minimum Inhibitory Concentration, WHO M
[5] = tested on: N. gonorrhoeae WHO X; test: Liquid broth MIC in Fastidious broth; conditions: Neisseria gonorrhoeae, read-out: Minimum Inhibitory Concentration, WHO X
Protocol: Liquid broth-based assays were used for antibacterial testing of PBP inhibitors in Neisseria gonorrhoeae. Briefly, cryo-preserved bacterial cultures of clinical strains were streaked for isolation on Chocolate Agar (72 g/L (2×) GC Agar Base (BD #228950) and 2% (2×) Hemoglobin was autoclaved at 121° C. for 20 minutes to sterilize. Once cooled to ˜50° C. the 2×GC Agar Base and 2× Hemoglobin solutions are combined and 1% IsoVitaleX Enrichment (BD #211876) was added to the solution). Strains were incubated at 36° C. and 5% CO2 to allow growth of colonies, 24 hours before inoculum preparation. 2-fold serial dilutions of test compounds were conducted in a 96 well plate with a final volume of 75 μL per well at 2-fold the final desired concentration in Fastidious broth (Remel #R07664). For preparation of assay inoculum, a direct suspension was prepared by aseptically swabbing 10-15 colonies from agar plates into culture tubes containing 2 mL of fresh sterile saline. After the dilution plates were set up, direct suspensions were then diluted in a cuvette containing sterile saline and the optical density was measured at 600 nm. Inocula were diluted such that 75 μL of this culture in Fastidious broth results in a starting bacterial concentration of 5×10^5 CFU/mL when added to the dilution plates. The plates were incubated for ˜24 hours at 36° C. and 5% CO2.

[6] = tested on: N. gonorrhoeae FA1090; test: Liquid broth MIC in Fastidious broth; conditions: Neisseria gonorrhoeae, FA1090, read-out: Minimum Inhibitory Concentration, FA 1090
[7] = tested on: P. aeruginosa ATCC 35151; test: microbe, parasite or virus in culture; type: cell-based; conditions: Pseudomonas aeruginosa, ATCC35151, read-out: Minimum inhibitory concentration, P. aeruginosa ATCC 35151
[8] = molecular target: T1, PBP3 from Pseudomonas aeruginosa (PAO1) (Pseudomonas aeruginosa, UniProt G3XD46); test: Bocillin-FL fluorescence polarization competition binding, P. aeruginosa PBP3; conditions: Binding affinity to P. aeruginosa PBP3; fluorescence polarization competition binding assay using Bocillin-FL; read-out: P. aeruginosa PBP3 Potency
T1 construct: made in house
T1 sequence (G3XD46 whole entry): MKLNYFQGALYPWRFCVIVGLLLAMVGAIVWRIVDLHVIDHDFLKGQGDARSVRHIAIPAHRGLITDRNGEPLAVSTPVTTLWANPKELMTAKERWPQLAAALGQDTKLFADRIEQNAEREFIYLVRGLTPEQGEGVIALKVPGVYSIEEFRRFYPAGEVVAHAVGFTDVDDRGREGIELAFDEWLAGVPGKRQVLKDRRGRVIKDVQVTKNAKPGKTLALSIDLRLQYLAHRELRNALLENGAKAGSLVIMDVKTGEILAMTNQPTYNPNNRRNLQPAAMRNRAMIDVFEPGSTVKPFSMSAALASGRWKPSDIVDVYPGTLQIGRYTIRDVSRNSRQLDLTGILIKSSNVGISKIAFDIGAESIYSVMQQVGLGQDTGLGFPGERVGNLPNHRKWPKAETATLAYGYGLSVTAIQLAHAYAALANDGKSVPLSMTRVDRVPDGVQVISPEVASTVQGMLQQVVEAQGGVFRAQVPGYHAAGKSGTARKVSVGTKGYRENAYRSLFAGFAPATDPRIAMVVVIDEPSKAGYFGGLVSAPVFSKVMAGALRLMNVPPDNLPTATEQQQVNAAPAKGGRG
Procedure, shortened: (§1)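 Purified PBPs pre-incubated with inhibitor (E. coli PBP3 1.5 μM, 30 min; P. aeruginosa PBP3 0.75 μM, A. baumannii PBP1a 1 μM and PBP3 0.2 μM, 15 min), then Bocillin-FL 0.1 μM (0.05 μM for PBP1a) added; FP read up to 60 min. EC50 = concentration halving bound Bocillin-FL.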

[9] = tested on: A. baumannii CDC-0083; test: microbe, parasite or virus in culture; type: cell-based; conditions: Acinetobacter baumannii, CDC0083, read-out: MIC, A. baumannii CDC-0083
[10] = tested on: N. gonorrhoeae WHO Z; test: Liquid broth MIC in Fastidious broth; conditions: Neisseria gonorrhoeae, read-out: Minimum Inhibitory Concentration, WHO Z
[11] = tested on: N. gonorrhoeae WHO L; test: Liquid broth MIC in Fastidious broth; conditions: Neisseria gonorrhoeae, read-out: Minimum Inhibitory Concentration, WHO L
[12] = molecular target: T2, PBP3 from Escherichia coli (K-12) (Escherichia coli, UniProt P0AD68); test: Bocillin-FL fluorescence polarization competition binding, E. coli PBP3
T2 construct: made in house
T2 sequence (P0AD68 1-577): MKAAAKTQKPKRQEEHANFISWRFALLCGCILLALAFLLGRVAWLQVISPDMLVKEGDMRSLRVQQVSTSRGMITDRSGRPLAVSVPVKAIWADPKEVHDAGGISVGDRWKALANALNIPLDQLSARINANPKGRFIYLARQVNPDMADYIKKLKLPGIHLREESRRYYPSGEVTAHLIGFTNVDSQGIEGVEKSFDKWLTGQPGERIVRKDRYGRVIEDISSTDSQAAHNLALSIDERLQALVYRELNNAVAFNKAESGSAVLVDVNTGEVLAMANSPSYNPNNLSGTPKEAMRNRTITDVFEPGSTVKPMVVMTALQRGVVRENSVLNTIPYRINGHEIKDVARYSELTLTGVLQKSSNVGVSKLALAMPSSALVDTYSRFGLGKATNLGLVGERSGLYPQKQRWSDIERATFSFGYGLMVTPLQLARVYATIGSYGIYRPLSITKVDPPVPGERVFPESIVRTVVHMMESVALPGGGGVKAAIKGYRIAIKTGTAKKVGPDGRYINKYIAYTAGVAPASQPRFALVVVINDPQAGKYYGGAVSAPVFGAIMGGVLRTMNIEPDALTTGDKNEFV
Procedure, shortened: as §1

[13] = tested on: N. gonorrhoeae CDC-0197; test: Liquid broth MIC in Fastidious broth; conditions: Neisseria gonorrhoeae, CDC0197, read-out: Minimum Inhibitory Concentration, CDC-0197
[14] = tested on: N. gonorrhoeae WHO K; test: Liquid broth MIC in Fastidious broth; conditions: Neisseria gonorrhoeae, read-out: Minimum Inhibitory Concentration, WHO K
[15] = tested on: B. humptydooensis ATCC BAA-2767; test: microbe, parasite or virus in culture; type: cell-based; conditions: Burkholderia humptydooensis, ATCCBAA2767, read-out: Minimum inhibitory concentration (MIC), B. humptydooensis ATCC BAA-2767

SMILES | MIC [1] [µg/mL] | MIC [2] [µg/mL] | MIC [3] [µg/mL] | MIC [4] [µg/mL] | MIC [5] [µg/mL] | MIC [6] [µg/mL] | MIC [7] [µg/mL] | IC50 [8] [µM] | MIC [9] [µg/mL] | MIC [10] [µg/mL] | MIC [11] [µg/mL] | EC50 [12] [µM] | MIC [13] [µg/mL] | MIC [14] [µg/mL] | MIC [15] [µg/mL]
O=C(NCCCS(=O)(=O)N1CCN(C(=O)NC(C(=O)N[C@H]2Cc3ccc(F)c(C(=O)O)c3OB2O)c2cc(F)c(O)c(O)c2Cl)C1=O)c1ccccc1 (stereo partly drawn) [Example 268, (3R)-3-(2-(3-((3-benzamidopropyl)sulfonyl)-2-oxoimidazolidine-1-carboxamido)-2-(2-chloro-5-fluoro-3,4-dihydroxyphenyl)acetamido)-7-fluoro-2-hydroxy-3,4-dihydro-2H-benzo[e][1,2]oxaborinine-8-carboxylic acid] | < 1 | 2 to 4 (≈ 2.56 to 5.13 µM) | < 1 | 16 to 32 (≈ 20.5 to 41 µM) | > 64 | 4 to 8 (≈ 5.13 to 10.3 µM) | < 1 | < 10 | 2 to 4 (≈ 2.56 to 5.13 µM) | 16 to 32 (≈ 20.5 to 41 µM) | > 64 | < 10 | 16 to 32 (≈ 20.5 to 41 µM) | > 64 | > 128
O=C(NCCCS(=O)(=O)N1CCN(C(=O)NC(C(=O)N[C@H]2Cc3ccc(F)c(C(=O)O)c3OB2O)c2cc(F)c(O)c(O)c2Cl)C1=O)c1ccc(O)cc1 (stereo partly drawn) [Example 269, (3R)-3-(2-(2-chloro-5-fluoro-3,4-dihydroxyphenyl)-2-(3-((3-(4-hydroxybenzamido)propyl)sulfonyl)-2-oxoimidazolidine-1-carboxamido)acetamido)-7-fluoro-2-hydroxy-3,4-dihydro-2H-benzo[e][1,2]oxaborinine-8-carboxylic acid] | < 1 | 2 to 4 (≈ 2.51 to 5.03 µM) | < 1 | 4 to 8 (≈ 5.03 to 10.1 µM) | > 64 | 4 to 8 (≈ 5.03 to 10.1 µM) | < 1 | < 10 | 32 to 64 (≈ 40.2 to 80.4 µM) | 16 to 32 (≈ 20.1 to 40.2 µM) | > 64 | < 10 | 16 to 32 (≈ 20.1 to 40.2 µM) | > 64 | > 128
O=C(NCCCS(=O)(=O)N1CCN(C(=O)N[C@H](C(=O)N[C@H]2Cc3ccc(F)c(C(=O)O)c3OB2O)c2cc(F)c(O)c(O)c2Cl)C1=O)c1cccc(O)c1 [Example 270, (R)-3-((S)-2-(2-chloro-5-fluoro-3,4-dihydroxyphenyl)-2-(3-((3-(3-hydroxybenzamido)propyl)sulfonyl)-2-oxoimidazolidine-1-carboxamido)acetamido)-7-fluoro-2-hydroxy-3,4-dihydro-2H-benzo[e][1,2]oxaborinine-8-carboxylic acid] | 2 to 4 (≈ 2.51 to 5.03 µM) | 32 to 64 (≈ 40.2 to 80.4 µM) | < 1 | > 64 | > 64 | 16 to 32 (≈ 20.1 to 40.2 µM) | < 1 | < 10 | 2 to 4 (≈ 2.51 to 5.03 µM) | > 64 | > 64 | 50 to 250 | > 64 | > 64 | > 128
O=C(NCCCS(=O)(=O)N1CCN(C(=O)N[C@@H](C(=O)N[C@H]2Cc3ccc(F)c(C(=O)O)c3OB2O)c2cc(F)c(O)c(O)c2Cl)C1=O)c1cccc(O)c1 [Example 271, (R)-3-((R)-2-(2-chloro-5-fluoro-3,4-dihydroxyphenyl)-2-(3-((3-(3-hydroxybenzamido)propyl)sulfonyl)-2-oxoimidazolidine-1-carboxamido)acetamido)-7-fluoro-2-hydroxy-3,4-dihydro-2H-benzo[e][1,2]oxaborinine-8-carboxylic acid] | < 1 | 2 to 4 (≈ 2.51 to 5.03 µM) | < 1 | 4 to 8 (≈ 5.03 to 10.1 µM) | > 64 | 1 to 2 (≈ 1.26 to 2.51 µM) | < 1 | < 10 | < 1 | 4 to 8 (≈ 5.03 to 10.1 µM) | > 64 | < 10 | 16 to 32 (≈ 20.1 to 40.2 µM) | > 64 | 2 to 4 (≈ 2.51 to 5.03 µM)
O=C(NCCCS(=O)(=O)N1CCN(C(=O)NC(C(=O)N[C@H]2Cc3ccc(F)c(C(=O)O)c3OB2O)c2cc(F)c(O)c(O)c2Cl)C1=O)c1ccncc1 (stereo partly drawn) [Example 272, (3R)-3-(2-(2-chloro-5-fluoro-3,4-dihydroxyphenyl)-2-(3-((3-(isonicotinamido)propyl)sulfonyl)-2-oxoimidazolidine-1-carboxamido)acetamido)-7-fluoro-2-hydroxy-3,4-dihydro-2H-benzo[e][1,2]oxaborinine-8-carboxylic acid] | < 1 | 2 to 4 (≈ 2.56 to 5.12 µM) | < 1 | 16 to 32 (≈ 20.5 to 41 µM) | > 64 | 4 to 8 (≈ 5.12 to 10.2 µM) | < 1 | < 10 | < 1 | 4 to 8 (≈ 5.12 to 10.2 µM) | > 64 | < 10 | 16 to 32 (≈ 20.5 to 41 µM) | > 64 | 2 to 4 (≈ 2.56 to 5.12 µM)
O=C(NCCCS(=O)(=O)N1CCN(C(=O)NC(C(=O)N[C@H]2Cc3ccc(F)c(C(=O)O)c3OB2O)c2cc(F)c(O)c(O)c2Cl)C1=O)c1cccnc1 (stereo partly drawn) [Example 273, (3R)-3-(2-(2-chloro-5-fluoro-3,4-dihydroxyphenyl)-2-(3-((3-(nicotinamido)propyl)sulfonyl)-2-oxoimidazolidine-1-carboxamido)acetamido)-7-fluoro-2-hydroxy-3,4-dihydro-2H-benzo[e][1,2]oxaborinine-8-carboxylic acid] | < 1 | < 1 | < 1 | 16 to 32 (≈ 20.5 to 41 µM) | > 64 | 4 to 8 (≈ 5.12 to 10.2 µM) | < 1 | < 10 | < 1 | 4 to 8 (≈ 5.12 to 10.2 µM) | > 64 | < 10 | 16 to 32 (≈ 20.5 to 41 µM) | > 64 | 2 to 4 (≈ 2.56 to 5.12 µM)
O=C(NCCCS(=O)(=O)N1CCN(C(=O)NC(C(=O)N[C@H]2Cc3ccc(F)c(C(=O)O)c3OB2O)c2cc(F)c(O)c(O)c2Cl)C1=O)c1nccs1 (stereo partly drawn) [Example 274, (3R)-3-(2-(2-chloro-5-fluoro-3,4-dihydroxyphenyl)-2-(2-oxo-3-((3-(thiazole-2-carboxamido)propyl)sulfonyl)imidazolidine-1-carboxamido)acetamido)-7-fluoro-2-hydroxy-3,4-dihydro-2H-benzo[e][1,2]oxaborinine-8-carboxylic acid] | < 1 | 2 to 4 (≈ 2.54 to 5.08 µM) | < 1 | 16 to 32 (≈ 20.3 to 40.7 µM) | > 64 | 4 to 8 (≈ 5.08 to 10.2 µM) | < 1 | < 10 | < 1 | 16 to 32 (≈ 20.3 to 40.7 µM) | > 64 | < 10 | 16 to 32 (≈ 20.3 to 40.7 µM) | > 64 | 2 to 4 (≈ 2.54 to 5.08 µM)
